Results published in patent US12448399B2, “Cereblon-based KRAS degrading PROTACs and uses related thereto” (Arvinas Operations, Inc., priority 2023, dated 2025).

Molecular target: T1, KRas-G12D (Homo sapiens, UniProt P01116, G12D)
T1 construct: insert the HiBiT tag onto the N-terminus of one or more of the endogenous KRas alleles; host or cells: AsPC-1 HiBiT-KRasG12D knock-in clone (one tagged allele, two untagged KRasG12D alleles)
Test: HiBiT Degradation Assay (G12D), AsPC-1 HiBiT-KRasG12D cells, 24 hr
Format: cell-based
Details: for Dmax: ASPC1, AsPC-1 cells, maximum degradation observed; for DC50: AsPC-1 cells
In short: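 AsPC-1 cells with CRISPR N-terminal HiBiT knock-in on one endogenous KRasG12D allele, treated 24 hr at 37° C with compound titrations in 0.5% DMSO. Lytic HiBiT luminescence normalized to DMSO, fitted to a 4-parameter model for DC50 and Dmax. Parallel alamar blue (4 hr) checked viability.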

T1 sequence (P01116 1-188 isoform P01116-2 G12D): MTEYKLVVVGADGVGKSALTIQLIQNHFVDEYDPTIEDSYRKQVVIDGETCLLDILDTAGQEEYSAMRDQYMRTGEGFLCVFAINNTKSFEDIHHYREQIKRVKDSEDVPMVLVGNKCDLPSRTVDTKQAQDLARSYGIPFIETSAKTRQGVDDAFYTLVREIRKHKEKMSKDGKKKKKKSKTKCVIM

Compound	Dmax [%]	DC50 [µM]
CCc1c(F)ccc2cc(O)cc(-c3ncc4c(N5CC6CCC(C5)N6)nc(OC[C@@H]5C[C@@H](OC6CCN(CC7CCN(c8ccc9c(c8)n(C(C)C)c(=O)n9C8CCC(=O)NC8=O)CC7)CC6)CN5C)nc4c3F)c12 (stereo partly drawn) [Compound 209, 3-(5-{4-[(4-{[(3R,5S)-5-{[(4-{3,8-diazabicyclo[3.2.1]octan-3-yl}-7-(8-ethyl-7-fluoro-3-hydroxynaphthalen-1-yl)-8-fluoropyrido[4,3-d]pyrimidin-2-yl)oxy]methyl}-1-methylpyrrolidin-3-yl]oxy}piperidin-1-yl)methyl]piperidin-1-yl}-2-oxo-3-(propan-2-yl)-2,3-dihydro-1H-1,3-benzodiazol-1-yl)piperidine-2,6-dione]	> 70	< 5.1
C#Cc1c(F)ccc2cc(O)cc(-c3ncc4c(N5CC6CCC(C5)N6)nc(OCC5(CN6CCC(CC7CCN(c8ccc9c(c8)n(C)c(=O)n9C8CCC(=O)NC8=O)CC7)CC6)CC5)nc4c3F)c12 (stereo not drawn) [Compound 210, 3-{5-[4-({1-[(1-{[(4-{3,8-diazabicyclo[3.2.1]octan-3-yl}-7-(8-ethynyl-7-fluoro-3-hydroxynaphthalen-1-yl)-8-fluoropyrido[4,3-d]pyrimidin-2-yl)oxy]methyl}cyclopropyl)methyl]piperidin-4-yl}methyl)piperidin-1-yl]-3-methyl-2-oxo-2,3-dihydro-1H-1,3-benzodiazol-1-yl}piperidine-2,6-dione]	> 70	< 5.1
C#Cc1c(F)ccc2cc(O)cc(-c3ncc4c(N5CC6CCC(C5)N6)nc(OC[C@@H]5CC[C@@H](CN6CCN(CC7CCN(c8ccc9c(c8)n(C(C)C)c(=O)n9C8CCC(=O)NC8=O)CC7)CC6)N5C)nc4c3F)c12 (stereo partly drawn) [Compound 211, 3-(5-{4-[(4-{[(2S,5S)-5-{[(4-{3,8-diazabicyclo[3.2.1]octan-3-yl}-7-(8-ethynyl-7-fluoro-3-hydroxynaphthalen-1-yl)-8-fluoropyrido[4,3-d]pyrimidin-2-yl)oxy]methyl}-1-methylpyrrolidin-2-yl]methyl}piperazin-1-yl)methyl]piperidin-1-yl}-2-oxo-3-(propan-2-yl)-2,3-dihydro-1H-1,3-benzodiazol-1-yl)piperidine-2,6-dione]	–	< 5.1
CCc1c(F)ccc2cc(O)cc(-c3ncc4c(N5CC6CCC(C5)N6)nc(OCCN5CCC(CC6CCN(CC7CCN(c8ccc9c(c8)n(C(C)C)c(=O)n9C8CCC(=O)NC8=O)CC7)CC6)CC5)nc4c3F)c12 (stereo not drawn) [Compound 212, 3-{5-[4-({4-[(1-{2-[(4-{3,8-diazabicyclo[3.2.1]octan-3-yl}-7-(8-ethyl-7-fluoro-3-hydroxynaphthalen-1-yl)-8-fluoropyrido[4,3-d]pyrimidin-2-yl)oxy]ethyl}piperidin-4-yl)methyl]piperidin-1-yl}methyl)piperidin-1-yl]-2-oxo-3-(propan-2-yl)-2,3-dihydro-1H-1,3-benzodiazol-1-yl}piperidine-2,6-dione]	> 70	< 5.1
C#Cc1c(F)ccc2cc(O)cc(-c3ncc4c(N5CC6CCC(C5)N6)nc(OC[C@@H]5C[C@@H](OC6CCN(CC7CCN(c8ccc9c(c8F)n(C)c(=O)n9C8CCC(=O)NC8=O)CC7)CC6)CN5C)nc4c3F)c12 (stereo partly drawn) [Compound 213, 3-(5-{4-[(4-{[(3R,5S)-5-{[(4-{3,8-diazabicyclo[3.2.1]octan-3-yl}-7-(8-ethynyl-7-fluoro-3-hydroxynaphthalen-1-yl)-8-fluoropyrido[4,3-d]pyrimidin-2-yl)oxy]methyl}-1-methylpyrrolidin-3-yl]oxy}piperidin-1-yl)methyl]piperidin-1-yl}-4-fluoro-3-methyl-2-oxo-2,3-dihydro-1H-1,3-benzodiazol-1-yl)piperidine-2,6-dione]	> 70	< 5.1
C#Cc1c(F)ccc2cc(O)cc(-c3ncc4c(N5CC6CCC(C5)N6)nc(OCCN5CCC(CC6CCN(CC7CCN(c8ccc9c(c8F)CN([C@H]8CCC(=O)NC8=O)C9=O)CC7)CC6)CC5)nc4c3F)c12 [Compound 214, (3S)-3-{5-[4-({4-[(1-{2-[(4-{3,8-diazabicyclo[3.2.1]octan-3-yl}-7-(8-ethynyl-7-fluoro-3-hydroxynaphthalen-1-yl)-8-fluoropyrido[4,3-d]pyrimidin-2-yl)oxy]ethyl}piperidin-4-yl)methyl]piperidin-1-yl}methyl)piperidin-1-yl]-4-fluoro-1-oxo-2,3-dihydro-1H-isoindol-2-yl}piperidine-2,6-dione]	> 70	< 5.1
C#Cc1c(F)ccc2cc(O)cc(-c3ncc4c(N5CC6CCC(C5)N6)nc(OCCN5CCC(CC6CCN(CC7CCN(c8ccc9c(c8)CN([C@H]8CCC(=O)NC8=O)C9=O)CC7)CC6)CC5)nc4c3F)c12 [Compound 215, (3S)-3-{5-[4-({4-[(1-{2-[(4-{3,8-diazabicyclo[3.2.1]octan-3-yl}-7-(8-ethynyl-7-fluoro-3-hydroxynaphthalen-1-yl)-8-fluoropyrido[4,3-d]pyrimidin-2-yl)oxy]ethyl}piperidin-4-yl)methyl]piperidin-1-yl}methyl)piperidin-1-yl]-1-oxo-2,3-dihydro-1H-isoindol-2-yl}piperidine-2,6-dione]	> 70	< 5.1
C#Cc1c(F)ccc2cc(O)cc(-c3ncc4c(N5CC6CCC(C5)N6)nc(OCCN5CCC(CC6CCN(CC7CCN(c8ccc9c(c8)CN([C@@H]8CCC(=O)NC8=O)C9=O)CC7)CC6)CC5)nc4c3F)c12 [Compound 216, (3R)-3-{5-[4-({4-[(1-{2-[(4-{3,8-diazabicyclo[3.2.1]octan-3-yl}-7-(8-ethynyl-7-fluoro-3-hydroxynaphthalen-1-yl)-8-fluoropyrido[4,3-d]pyrimidin-2-yl)oxy]ethyl}piperidin-4-yl)methyl]piperidin-1-yl}methyl)piperidin-1-yl]-1-oxo-2,3-dihydro-1H-isoindol-2-yl}piperidine-2,6-dione]	> 70	< 5.1
C#Cc1c(F)ccc2cc(O)cc(-c3ncc4c(N5CC6CCC(C5)N6)nc(OCCN5CCC(CC6CCN(CC7CCN(c8ccc9c(c8F)n(C(C)C)c(=O)n9C8CCC(=O)NC8=O)CC7)CC6)CC5)nc4c3F)c12 (stereo not drawn) [Compound 217, 3-{5-[4-({4-[(1-{2-[(4-{3,8-diazabicyclo[3.2.1]octan-3-yl}-7-(8-ethynyl-7-fluoro-3-hydroxynaphthalen-1-yl)-8-fluoropyrido[4,3-d]pyrimidin-2-yl)oxy]ethyl}piperidin-4-yl)methyl]piperidin-1-yl}methyl)piperidin-1-yl]-4-fluoro-2-oxo-3-(propan-2-yl)-2,3-dihydro-1H-1,3-benzodiazol-1-yl}piperidine-2,6-dione]	> 70	< 5.1
C#Cc1c(F)ccc2cc(O)cc(-c3ncc4c(N5CC6CCC(C5)N6)nc(OCCN5CCC6(CC5)CCN(CC5CCN(c7ccc8c(c7)n(C)c(=O)n8C7CCC(=O)NC7=O)CC5)CC6)nc4c3F)c12 (stereo not drawn) [Compound 218, 3-(5-{4-[(9-{2-[(4-{3,8-diazabicyclo[3.2.1]octan-3-yl}-7-(8-ethynyl-7-fluoro-3-hydroxynaphthalen-1-yl)-8-fluoropyrido[4,3-d]pyrimidin-2-yl)oxy]ethyl}-3,9-diazaspiro[5.5]undecan-3-yl)methyl]piperidin-1-yl}-3-methyl-2-oxo-2,3-dihydro-1H-1,3-benzodiazol-1-yl)piperidine-2,6-dione]	> 70	< 5.1
C#Cc1c(F)ccc2cc(O)cc(-c3ncc4c(N5CC6CCC(C5)N6)nc(OCCN5CCC(CN6CCN(CC7CCN(c8ccc9c(c8Cl)CN(C8CCC(=O)NC8=O)C9=O)CC7)CC6)CC5)nc4c3F)c12 (stereo not drawn) [Compound 219, 3-[4-chloro-5-[4-[[4-[[1-[2-[4-(3,8-diazabicyclo[3.2.1]octan-3-yl)-7-(8-ethynyl-7-fluoro-3-hydroxy-1-naphthyl)-8-fluoro-pyrido[4,3-d]pyrimidin-2-yl]oxyethyl]-4-piperidyl]methyl]piperazin-1-yl]methyl]-1-piperidyl]-1-oxo-isoindolin-2-yl]piperidine-2,6-dione]	> 70	< 5.1
C#Cc1c(F)ccc2cc(O)cc(-c3ncc4c(N5CC6CCC(C5)N6)nc(OCCN5CCC6(CC5)CCN(CC5CCN(c7ccc8c(c7Cl)CN(C7CCC(=O)NC7=O)C8=O)CC5)CC6)nc4c3F)c12 (stereo not drawn) [Compound 220, 3-(4-chloro-5-{4-[(9-{2-[(4-{3,8-diazabicyclo[3.2.1]octan-3-yl}-7-(8-ethynyl-7-fluoro-3-hydroxynaphthalen-1-yl)-8-fluoropyrido[4,3-d]pyrimidin-2-yl)oxy]ethyl}-3,9-diazaspiro[5.5]undecan-3-yl)methyl]piperidin-1-yl}-1-oxo-2,3-dihydro-1H-isoindol-2-yl)piperidine-2,6-dione]	> 70	< 5.1
C#Cc1c(F)ccc2cc(O)cc(-c3ncc4c(N5CC6CCC(C5)N6)nc(OCCN5CCC(CN6CCN(CC7CCN(c8ccc9c(c8)n(C)c(=O)n9C8CCC(=O)NC8=O)CC7)CC6)CC5)nc4c3F)c12 (stereo not drawn) [Compound 221, 3-{5-[4-({4-[(1-{2-[(4-{3,8-diazabicyclo[3.2.1]octan-3-yl}-7-(8-ethynyl-7-fluoro-3-hydroxynaphthalen-1-yl)-8-fluoropyrido[4,3-d]pyrimidin-2-yl)oxy]ethyl}piperidin-4-yl)methyl]piperazin-1-yl}methyl)piperidin-1-yl]-3-methyl-2-oxo-2,3-dihydro-1H-1,3-benzodiazol-1-yl}piperidine-2,6-dione]	> 70	< 5.1
C#Cc1c(F)ccc2cc(O)cc(-c3ncc4c(N5CC6CCC(C5)N6)nc(OCCN5CCC(CN6CCN(CC7CCN(c8ccc9c(c8)n(C(C)C)c(=O)n9C8CCC(=O)NC8=O)CC7)CC6)CC5)nc4c3F)c12 (stereo not drawn) [Compound 222, 3-{5-[4-({4-[(1-{2-[(4-{3,8-diazabicyclo[3.2.1]octan-3-yl}-7-(8-ethynyl-7-fluoro-3-hydroxynaphthalen-1-yl)-8-fluoropyrido[4,3-d]pyrimidin-2-yl)oxy]ethyl}piperidin-4-yl)methyl]piperazin-1-yl}methyl)piperidin-1-yl]-2-oxo-3-(propan-2-yl)-2,3-dihydro-1H-1,3-benzodiazol-1-yl}piperidine-2,6-dione]	> 70	< 5.1
